Data: patent US20210063374A1, “ABNORMAL CARDIAC RHYTHM MYOCARDIAL MODEL AND METHOD FOR PRODUCING SAME, AGENT FOR FORMING ABNORMAL CARDIAC RHYTHM MYOCARDIAL MODEL, AND METHOD FOR EVALUATING DRUG EFFICACY OF HEART DISEASE THERAPEUTIC” (TOPPAN PRINTING CO., LTD., priority 2017, published 2021)
Entries after “also recorded” stand apart in the source; their conditions may differ.

System: myocardial models composed of three-dimensional tissues (iPS-CM 75%/NHCF 25%)
Assay: Evaluation of drug response to isoproterenol (change rate of the number of beats of myocardial model)
Format: cell-based, human
Details: 100 nM isoproterenol, 30, 60, 80 min incubation, FIG. 12
Description: 5 mL of 10× phosphate buffered saline (PBS) was added to 50 mg of a pig skin-derived type I collagen (provided by NH Foods Ltd.), and was subjected to homogenization by using a homogenizer for 6 min. Subsequently, centrifugation was performed at 10000 rpm for 3 min to remove the supernatant. 5 mL of serum-free DMEM was added thereto, followed by washing by pipetting for 1 min. After the washing, centrifugation was performed at 10000 rpm for 3 min to remove the supernatant. 5 mL of serum-containing DMEM was added thereto to prepare a culture medium (CMF concentration: 9.8 mg/mL) having fragmented collagens (CMF) dispersed therein. Dispersions were weighed from the culture medium having CMF dispersed therein such that the amounts of CMFs were 0, 1, 2, and 3 mg, were mixed with 5×10^5 cells of iPS-CM 75%/NHCF 25%, and were seeded in a 96-well round-bottomed non-adherent plate (the amount of the culture medium: 300 μL). Subsequently, centrifugation was performed at 1100 g for 5 min to precipitate the CMFs and the cells. After the centrifugation, culturing was performed in a culture-ware at 37° C. The culture medium was replaced every 2 days by removing the old culture medium and adding 300 μL of new culture medium.
A three-dimensional tissue was constructed in the same manner as above. […] The content of the collagen in the three-dimensional tissue was measured using the kit above according to the standard protocol of the kit.
The cardiac rhythms of the tissues after culturing for 5 to 6 days were taken using a SONY Motion analyzer to measure the number of beats. […] From the results of measurement, the change rate of the number of beats (change rate of beating) by adding isoproterenol was calculated from the following equation. […]
The change rate of the number of beats caused by addition of isoproterenol is determined by the equation above, and this value is corrected by the equation below, i.e., by dividing this value by the change rate of the number of beats when the drug is not added (=a change in the number of beats caused by replacement of the culture medium).

CC(C)NCC(O)c1ccc(O)c(O)c1 (stereo not drawn) [isoproterenol]
drug response (change rate of the number of beats) (myocardial model with 0 mg CMFs): poor | drug response (change rate of the number of beats) (myocardial model with 1 mg CMFs): exhibited; also recorded: more favorable drug response | drug response (change rate of the number of beats) (myocardial model with 3 mg CMFs): exhibited
